According to US20240041042A1, “1-(PYRIDYL)-5-AZINYLPYRAZOLE DERIVATIVES, AND THEIR USE FOR CONTROL OF UNDESIRED PLANT GROWTH” (Bayer Aktiengesellschaft, priority 2020, published 2024):
Like-named read-outs stand apart in the source and are kept apart here.

What was measured:
Format in all cases: in vivo
[1] = test system: Oryza sativa (ORYSA); details: crop plant compatibility
Method in brief: (§1)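 Foliar application at the one-leaf stage: WP/EC formulation, 0.5% additive, 600 l/ha water. Greenhouse-grown in sandy loam. Endpoint is visual % injury relative to untreated controls at about 3 weeks.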

[2] = test system: Triticum aestivum (TRZAS); details: crop plant compatibility, effect vs untreated controls
Method in brief: as §1

[3] = test system: Zea mays (ZEAMX); details: for Post-emergence action against ZEAMX in % (crop plant compatibility): 20 g/ha, effect in comparison to untreated controls; for Post-emergence action against ZEAMX in %: crop plant compatibility, 80 g/ha, effect vs untreated controls
Method in brief: as §1

[4] = test system: Setaria viridis (SETVI); test: Pre-emergence herbicidal action against SETVI
Method in brief: (§2)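 Seeds sown in pots and covered with soil; WP or EC formulations sprayed onto the soil surface at 600 l/ha water with 0.5% additive, at 320 g/ha or lower. Greenhouse growth for about 3 weeks, then visual scoring as % effect against untreated controls (100% = plants dead).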

[5] = test system: Echinochloa crus-galli (ECHCG); test: Pre-emergence herbicidal action against ECHCG
Method in brief: as §2

[6] = test system: Matricaria inodora (MATIN); test: Post-emergence herbicidal action against MATIN; details: dosage 80 g/ha
Method in brief: (§3)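 Rates were 320 g/ha or below, applied as aqueous WP/EC spray with 0.5% additive (600 l/ha) onto one-leaf-stage plants. About 3 weeks later in the greenhouse, damage was scored visually against untreated plants on a 0–100% scale, where 100% means plants died.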

[7] = test system: Amaranthus retroflexus (AMARE); test: Post-emergence herbicidal action against AMARE
Method in brief: as §3

[8] = test system: Polygonum convolvulus (POLCO); test: Post-emergence herbicidal action against POLCO
Method in brief: as §3

[9] = test system: Alopecurus myosuroides (ALOMY); test: Pre-emergence herbicidal action against ALOMY; details: scored visually after about 3 weeks, 100% = plants have died
Method in brief: as §2

[10] = test system: Avena fatua (AVEFA); test: Pre-emergence herbicidal action against AVEFA; details: 320 g/ha, visual scoring after about 3 weeks vs untreated controls
Method in brief: as §2

[11] = test system: Viola tricolor (VIOTR); test: Pre-emergence herbicidal action against VIOTR
Method in brief: as §2

[12] = test system: Lolium rigidum (LOLRI); test: Pre-emergence herbicidal action against LOLRI
Method in brief: as §2

[13] = test system: Pharbitis purpurea (PHBPU); test: Post-emergence herbicidal action against PHBPU; details: dosage 80 g/ha
Method in brief: as §3

[14] = test system: Setaria viridis (SETVI); test: Post-emergence herbicidal action against SETVI
Method in brief: as §3

[15] = test system: Verconica persica (VERPE); test: Post-emergence herbicidal action against VERPE
Method in brief: as §3

[16] = test system: Verconica persica (VERPE); test: Pre-emergence herbicidal action against VERPE
Method in brief: as §2

[17] = test system: Polygonum convolvulus (POLCO); test: Pre-emergence herbicidal action against POLCO
Method in brief: as §2

[18] = test system: Pharbitis purpurea (PHBPU); test: Pre-emergence herbicidal action against PHBPU
Method in brief: as §2

[19] = test system: Echinochloa crus-galli (ECHCG); test: Post-emergence herbicidal action against ECHCG
Method in brief: as §3

[20] = test system: Lolium rigidum (LOLRI); test: Post-emergence herbicidal action against LOLRI; details: dosage 80 g/ha
Method in brief: as §3

[21] = test system: Amaranthus retroflexus (AMARE); test: Pre-emergence herbicidal action against AMARE; details: visual scoring after about 3 weeks vs untreated controls
Method in brief: as §2

[22] = test system: Alopecurus myosuroides (ALOMY); test: Post-emergence herbicidal action against ALOMY; details: visual rating about 3 weeks after treatment vs untreated controls (100% = plants have died, 0% = like control plants)
Method in brief: as §3

[23] = test system: Matricaria inodora (MATIN); test: Pre-emergence herbicidal action against MATIN
Method in brief: as §2

[24] = test system: Abutilon theophrasti (ABUTH); test: Post-emergence herbicidal action against ABUTH; details: visual rating about 3 weeks after treatment vs untreated controls (100% = plants have died, 0% = like control plants)
Method in brief: as §3

[25] = test system: Avena fatua (AVEFA); test: Post-emergence herbicidal action against AVEFA; details: 80 g/ha, visual rating about 3 weeks after treatment
Method in brief: as §3

[26] = test system: Viola tricolor (VIOTR); test: Post-emergence herbicidal action against VIOTR
Method in brief: as §3

[27] = test system: Digitaria sanguinalis (DIGSA); test: Post-emergence herbicidal action against DIGSA; details: 320 g/ha, visual rating about 3 weeks after treatment
Method in brief: as §3

[28] = 20 g/ha, effect vs untreated controls
[29] = 80 g/ha, effect in comparison to untreated controls
[30] = 80 g/ha, visual rating about 3 weeks after treatment vs untreated controls (100% = plants have died, 0% = like control plants)

SMILES	Post-emergence action against ORYSA in % [1, 28] [%]	Post-emergence action against ORYSA in % [1, 29] [%]	Post-emergence action against TRZAS in % ([2]; 20 g/ha) [%]	Post-emergence action against ZEAMX in % (crop plant compatibility) [3] [%]	Post-emergence action against ZEAMX in % [3] [%]	Pre-emergence action against SETVI in % ([4]; dosage 320 g/ha) [%]	Pre-emergence action against ECHCG in % ([5]; dosage 80 g/ha) [%]	Pre-emergence action against ECHCG in % ([5]; dosage 320 g/ha) [%]	Post-emergence action against MATIN in % [6] [%]	Post-emergence action against AMARE in % [7, 30] [%]	Pre-emergence action against ALOMY ([9]; 80 g/ha) [%]	Pre-emergence action against ALOMY ([9]; 320 g/ha) [%]	Pre-emergence action against AVEFA in % [10] [%]	Pre-emergence action against VIOTR in % ([11]; 320 g/ha, Viola tricolor) [%]	Pre-emergence action against LOLRI in % ([12]; dosage 320 g/ha) [%]	Post-emergence action against PHBPU in % [13] [%]	Post-emergence action against SETVI in % ([14]; dosage 80 g/ha) [%]	Post-emergence action against VERPE in % ([15]; dosage 80 g/ha) [%]	Pre-emergence action against VERPE in % ([16]; dosage 320 g/ha) [%]	Pre-emergence action against POLCO in % ([17]; dosage 320 g/ha) [%]	further results
COC(=O)CCOC(=O)COc1nn(-c2ccccn2)c(-c2cncc(F)c2)c1Cl [Example I-75]	0	0	20	10	20	100	80	100	90	80	80	90	80	100	100	90	80	80	90	90	Post-emergence action against POLCO in % ([8]; dosage 80 g/ha): 90%; Pre-emergence action against LOLRI in % ([12]; dosage 80 g/ha): 80%; Pre-emergence action against PHBPU in % ([18]; dosage 80 g/ha): 90%; Pre-emergence action against PHBPU in % ([18]; dosage 320 g/ha): 90%; Post-emergence action against ECHCG in % ([19]; dosage 80 g/ha): 90%; Post-emergence action against LOLRI in % [20]: 90%; Pre-emergence action against AMARE in % ([21]; 80 g/ha): 80%; Pre-emergence action against AMARE in % ([21]; 320 g/ha): 90%; Post-emergence action against ALOMY in % ([22]; 80 g/ha): 90%; Pre-emergence action against MATIN in % ([23]; dosage 80 g/ha): 90%; Pre-emergence action against MATIN in % ([23]; dosage 320 g/ha): 90%; Post-emergence action against ABUTH in % ([24]; 80 g/ha): 80%; Post-emergence action against AVEFA in % [25]: 80%
COC(=O)COc1nn(-c2cccnc2C)c(-c2cncc(F)c2)c1Cl [II-44]	0	0	20	0	0	–	–	–	–	–	–	–	–	–	–	–	–	80	–	–	Post-emergence action against TRZAS in % ([2]; 80 g/ha): 20%; Post-emergence action against AMARE in % ([7]; 320 g/ha, visual rating about 3 weeks after treatment): 90%; Post-emergence action against POLCO in % ([8]; dosage 320 g/ha): 90%; Post-emergence action against VIOTR in % ([26]; 80 g/ha): 80%; Post-emergence action against VIOTR in % ([26]; 320 g/ha): 90%; Post-emergence action against SETVI in % ([14]; dosage 320 g/ha): 90%; Post-emergence action against VERPE in % ([15]; 320 g/ha, VERPE): 90%; Post-emergence action against DIGSA in % [27]: 80%; Post-emergence action against ECHCG in % ([19]; dosage 320 g/ha): 90%; Post-emergence action against ALOMY in % ([22]; 320 g/ha): 100%; Post-emergence action against ABUTH in % ([24]; 320 g/ha): 80%
CCOC(=O)COc1nn(-c2ncccc2F)c(-c2ccc(F)nc2)c1Br [Example I-51]	20	–	20	20	–	100	80	90	80	90	90	100	90	100	90	90	90	80	100	90	Pre-emergence action against SETVI in % ([4]; dosage 80 g/ha): 90%; Pre-emergence action against VIOTR in % ([11]; dosage 80 g/ha): 100%; Post-emergence action against VIOTR in % ([26]; 80 g/ha): 80%; Pre-emergence action against VERPE in % ([16]; dosage 80 g/ha): 100%; Pre-emergence action against POLCO in % ([17]; dosage 80 g/ha): 80%; Pre-emergence action against PHBPU in % ([18]; dosage 320 g/ha): 90%; Post-emergence action against ECHCG in % ([19]; dosage 80 g/ha): 90%; Pre-emergence action against AMARE in % ([21]; 80 g/ha): 100%; Pre-emergence action against AMARE in % ([21]; 320 g/ha): 100%; Post-emergence action against ALOMY in % ([22]; 80 g/ha): 90%; Pre-emergence action against MATIN in % ([23]; dosage 80 g/ha): 90%; Pre-emergence action against MATIN in % ([23]; dosage 320 g/ha): 90%; Post-emergence action against AVEFA in % [25]: 90%
